pIC50: −log10 of the molar value.
What was measured:
[1] = High Throughput Blood Level Assay - Rat; type: in vivo; settings: male, Alderley Park (AP), Wistar derived, Alpk..APfSD, plasma, oral cocktail dosing, normalised to a 1 mg/kg dose
Excerpt: (§1) The level of oral exposure of a compound can be measured by the following assay. This assay gives a semi-quantitative measure of the concentration of the compound achieved in the blood at a number of time points. Data available include Cmax (highest concentration achieved), and the AUC (area under the plasma concentration/time curve) for the compound. This gives a high throughput measure of likelihood of obtaining blood levels for each compound following oral dosing and as the data are normalised for dose, it allows direct comparison of each compound.
A cocktail of 6 compounds is formulated in propylene glycol using a combination of vortex mixing, sonication and high speed shear mixing. This formulation consists of 5 test compounds (1 mg/ml) and a standard (0.5 mg/ml). The resulting formulation is a solution or a stable (≧several hours) suspension.
The formulation is dosed (2 ml/kg) to two male rats (170-250 gm) which have been fasted for ≦16 hours then pre-dosed with water (˜10 ml/kg). The dose for the test compounds is 2 mg/kg and for the standard it is 1 mg/kg. […]
Samples are analysed by LC/MS-MS and the concentration obtained is used to determine the Cmax μg/ml (maximum compound level detected), AUC0-6 hr μg/hr/ml (area under the curve) and tmax hr (time that the maximum compound levels have been measured) for a given compound to give an indication of exposure […]

[2] = High Throughput Blood Level Assay - Mice; type: in vivo; settings: male, Alpk..APfCD-1, plasma, 2 mg/kg; AP mouse, oral cocktail dosing, normalised to 1 mg/kg
Excerpt: as §1
The above assay may be run using mice in place of rats, but with the following variations.
For a profile in mice 10 male mice are dosed at the same level as to rats but they are not fasted or predosed with water. Furthermore, samples from mice are all terminal, with 2 mice per time point.
The mice used in the above experiment were AP mice. The AP mouse was originally obtained from a commercial breeder Schoefields in 1956. The stock was rederived by fostering onto a CD-1 Charles Rivers (commercial supplier) outbred mouse and has remained a closed colony ever since. The nomenclature for these animals is Alpk..APfCD-1.

[3] = biological target: T1, CDK2/Cyclin E (Homo sapiens, UniProt P24941); test: CDK2/Cyclin E in vitro kinase assay (Scintillation Proximity Assay, GST-Rb substrate); type: biochemical; settings: read-out: CDK2 inhibitory activity IC50
T1 construct: made in house; host or cells: Sf21 insect cells (baculovirus co-infection, pVL1393); the GST-Rb substrate was made in E. coli BL21 (DE3) pLysS
Experimental: The compounds were tested in an in vitro kinase assay in 96 well format using Scintillation Proximity Assay (SPA—obtained from Amersham) for measuring incorporation of [γ-33-P]-Adenosine Triphosphate into a test substrate (GST-Retinoblastoma protein; GST-Rb). In each well was placed the compound to be tested (diluted in DMSO and water to correct concentrations) and in control wells either roscovitine as an inhibitor control or DMSO as a positive control. […]
The plates were sealed with Topseal-S plate sealers, left for two hours then spun at 2500 rpm, 1124 xg., for 5 minutes. The plates were read on a Topcount for 30 seconds per well. […]
E. coli paste was resuspended in 10 ml/g of NETN buffer (50 mM Tris pH 7.5, 120 mM NaCl, 1 mM EDTA, 0.5% v/v NP-40, 1 mM PMSF, 1 μg/ml leupeptin, 1 ug/ml aprotinin and 1 ug/ml pepstatin) and sonicated for 2×45 seconds per 100 ml homogenate. […] The final product was analysed by Sodium Dodeca Sulfate (SDS) PAGE (Polyacrylamide gel) using 8-16% Tris-Glycine gels (Novex, San Diego, USA).
The open reading frames of CDK2 and Cyclin E were isolated by reverse transcriptase-PCR using HeLa cell and activated T cell mRNA as a template and cloned into the insect expression vector pVL1393 (obtained from Invitrogen 1995 catalogue number: V1392-20). […]

SMILES | AUC [1] | Cmax [1] | AUC [2] | Cmax [2] | pIC50 [3]
Cc1ncc(-c2nc(Nc3ccc(C(=O)NC4CC4)c(F)c3)ncc2F)n1C(C)C [Example 25] | 0.83 µM·h | 400 nM | 1.5 µM·h | 680 nM | 
CNC(=O)c1ccc(Nc2ncc(F)c(-c3cnc(C)n3C(C)C)n2)cc1C [Example 28] |  |  |  |  | 8.52
